Converted amounts (≈) assume the structure as drawn.
Columns and labels:
Format in all cases: functional
Escherichia coli [1] = assay: Antimicrobial activity against Escherichia coli J53 transconjugated with Proteus mirabilis pHS10 carrying qnrC gene by CLSI agar dilution method
Proteus mirabilis [2] = assay: Antimicrobial activity against Proteus mirabilis 06-489 isolated from infected human urinary tract by CLSI agar dilution method
Escherichia coli [3] = assay: Antimicrobial activity against Escherichia coli J53 by CLSI agar dilution method
Escherichia coli [4] = assay: Antimicrobial activity against Escherichia coli J53 by Etest
Escherichia coli [5] = assay: Antimicrobial activity against Escherichia coli J53 transconjugated with Proteus mirabilis pHS10 carrying qnrC gene by Etest
Escherichia coli [6] = assay: Antimicrobial activity against Escherichia coli TOP10 harboring pHS12 carrying TTG to ATG substituted qnrC gene by CLSI agar dilution method
Escherichia coli [7] = assay: Antimicrobial activity against Escherichia coli TOP10 harboring pHS12 carrying ATT to ATG substituted qnrC gene by CLSI agar dilution method
Escherichia coli [8] = assay: Antimicrobial activity against Escherichia coli TOP10 harboring pHS12 carrying qnrC gene by CLSI agar dilution method
Escherichia coli [9] = assay: Antimicrobial activity against Escherichia coli ATCC 25922 by CLSI agar dilution method
Escherichia coli [10] = assay: Antimicrobial activity against Escherichia coli TOP10 harboring pHS12 carrying ATT to TTA substituted qnrC gene by CLSI agar dilution method
Escherichia coli [11] = assay: Antimicrobial activity against Escherichia coli TOP10 harboring pHS12 carrying TTG to TTA substituted qnrC gene by CLSI agar dilution method
Escherichia coli [12] = assay: Antimicrobial activity against Escherichia coli TOP10 harboring pHS12 carrying ATG to ACG substituted qnrC gene by CLSI agar dilution method
Proteus mirabilis [13] = assay: Antimicrobial activity against Proteus mirabilis 06-489 isolated from infected human urinary tract by Etest; details: 06-489, Urine
Escherichia coli [14] = assay: Antimicrobial activity against Escherichia coli TOP10 harboring pHS12 carrying TTG to TCG substituted qnrC gene by CLSI agar dilution method

CO/N=C(\C(=O)N[C@@H]1C(=O)N2C(C(=O)O)=C(COC(N)=O)CS[C@H]12)c1ccco1 [CEFUROXIME]
MIC (Escherichia coli [1]): 8 µg/mL (≈ 18.9 µM)
MIC (Proteus mirabilis [2]; 06-489, Urine): 4 µg/mL (≈ 9.43 µM)
MIC (Escherichia coli [3]): 8 µg/mL (≈ 18.9 µM)

O=C(N[C@H](CO)[C@H](O)c1ccc([N+](=O)[O-])cc1)C(Cl)Cl [CHLORAMPHENICOL]
MIC (Escherichia coli [1]): 64 µg/mL (≈ 198 µM)
MIC (Proteus mirabilis [2]; 06-489, Urine): 16 µg/mL (≈ 49.5 µM)
MIC (Escherichia coli [3]): 8 µg/mL (≈ 24.8 µM)

C[C@H]1COc2c(N3CCN(C)CC3)c(F)cc3c(=O)c(C(=O)O)cn1c23.C[C@H]1COc2c(N3CCN(C)CC3)c(F)cc3c(=O)c(C(=O)O)cn1c23.O [LEVOFLOXACIN]
MIC (Escherichia coli [4]): 0.023 µg/mL
MIC (Escherichia coli [5]): 0.25 µg/mL
MIC (Escherichia coli [6]): 0.19 µg/mL
MIC (Escherichia coli [7]): 0.125 µg/mL
MIC (Escherichia coli [8]): 0.19 µg/mL
MIC (Escherichia coli [9]): 0.006 µg/mL
MIC (Escherichia coli [10]): 0.125 µg/mL
MIC (Escherichia coli [11]): 0.006 µg/mL
MIC (Escherichia coli [12]): 0.19 µg/mL
MIC (Proteus mirabilis [13]): 0.5 µg/mL

O=C(O)c1cn(C2CC2)c2cc(N3CCNCC3)c(F)cc2c1=O [CIPROFLOXACIN]
MIC (Proteus mirabilis [13]): 0.25 µg/mL (≈ 0.754 µM)

GENTAMICIN
MIC (Escherichia coli [1]): 4 µg/mL
MIC (Proteus mirabilis [2]; Urine): 16 µg/mL
MIC (Escherichia coli [3]): 0.125 µg/mL

CC1(C)S[C@@H]2[C@H](NC(=O)[C@H](N)c3ccccc3)C(=O)N2[C@H]1C(=O)O [AMPICILLIN]
MIC (Escherichia coli [1]): 128 µg/mL (≈ 366 µM)
MIC (Proteus mirabilis [2]; 06-489, Urine): 64 µg/mL (≈ 183 µM)
MIC (Escherichia coli [3]): 4 µg/mL (≈ 11.4 µM)

CC(C)(O/N=C(\C(=O)N[C@@H]1C(=O)N2C(C(=O)[O-])=C(C[n+]3ccccc3)CS[C@H]12)c1csc(N)n1)C(=O)O [CEFTAZIDIME]
MIC (Escherichia coli [1]): 0.06 µg/mL (≈ 0.11 µM)
MIC (Proteus mirabilis [2]; 06-489, Urine): ≤ 0.06 µg/mL
MIC (Escherichia coli [3]): ≤ 0.06 µg/mL

Cc1cc(NS(=O)(=O)c2ccc(N)cc2)no1 [SULFAMETHOXAZOLE]
MIC (Escherichia coli [1]): > 1020 µg/mL
MIC (Proteus mirabilis [2]; 06-489, Urine): > 1020 µg/mL
MIC (Escherichia coli [3]): 16 µg/mL (≈ 63.2 µM)

CCn1cc(C(=O)O)c(=O)c2ccc(C)nc21 [NALIDIXIC ACID]
MIC (Escherichia coli [4]): 4 µg/mL (≈ 17.2 µM)
MIC (Escherichia coli [5]): 16 µg/mL (≈ 68.9 µM)
MIC (Escherichia coli [6]): 4 µg/mL (≈ 17.2 µM)
MIC (Escherichia coli [7]): 4 µg/mL (≈ 17.2 µM)
MIC (Escherichia coli [8]): 4 µg/mL (≈ 17.2 µM)
MIC (Escherichia coli [9]): 1 µg/mL (≈ 4.31 µM)
MIC (Escherichia coli [10]): 3 µg/mL (≈ 12.9 µM)
MIC (Escherichia coli [14]): 1.5 µg/mL (≈ 6.46 µM)
MIC (Escherichia coli [11]): 1 µg/mL (≈ 4.31 µM)
MIC (Escherichia coli [12]): 4 µg/mL (≈ 17.2 µM)
MIC (Proteus mirabilis [13]): 16 µg/mL (≈ 68.9 µM)

CN(C)[C@@H]1C(O)=C(C(N)=O)C(=O)[C@@]2(O)C(O)=C3C(=O)c4c(O)cccc4[C@@](C)(O)[C@H]3C[C@@H]12 [TETRACYCLINE]
MIC (Escherichia coli [1]): 128 µg/mL (≈ 288 µM)
MIC (Proteus mirabilis [2]; 06-489, Urine): 128 µg/mL (≈ 288 µM)
MIC (Escherichia coli [3]): 1 µg/mL (≈ 2.25 µM)

COc1cc(Cc2cnc(N)nc2N)cc(OC)c1OC [TRIMETHOPRIM]
MIC (Escherichia coli [1]): > 128 µg/mL
MIC (Proteus mirabilis [2]; 06-489, Urine): > 128 µg/mL
MIC (Escherichia coli [3]): 0.25 µg/mL (≈ 0.861 µM)

CO[C@@]1(NC(=O)Cc2cccs2)C(=O)N2C(C(=O)O)=C(COC(N)=O)CS[C@@H]21 [CEFOXITIN]
MIC (Escherichia coli [1]): 4 µg/mL (≈ 9.36 µM)
MIC (Proteus mirabilis [2]; 06-489, Urine): 2 µg/mL (≈ 4.68 µM)
MIC (Escherichia coli [3]): 4 µg/mL (≈ 9.36 µM)

CO/N=C(\C(=O)N[C@@H]1C(=O)N2C(C(=O)O)=C(COC(C)=O)CS[C@H]12)c1csc(N)n1 [CEFOTAXIME]
MIC (Escherichia coli [1]): ≤ 0.06 µg/mL
MIC (Proteus mirabilis [2]; 06-489, Urine): ≤ 0.06 µg/mL
MIC (Escherichia coli [3]): ≤ 0.06 µg/mL

NCC[C@H](O)C(=O)N[C@@H]1C[C@H](N)[C@@H](O[C@H]2O[C@H](CN)[C@@H](O)[C@H](O)[C@H]2O)[C@H](O)[C@H]1O[C@H]1O[C@H](CO)[C@@H](O)[C@H](N)[C@H]1O [AMIKACIN]
MIC (Escherichia coli [1]): 0.5 µg/mL (≈ 0.854 µM)
MIC (Proteus mirabilis [2]; 06-489, Urine): 8 µg/mL (≈ 13.7 µM)
MIC (Escherichia coli [3]): 0.25 µg/mL (≈ 0.427 µM)
